Each structure is given as a SMILES string.

We go through two compounds from ChEMBL document CHEMBL1137029, “Substituted benzylamino-6-(trifluoromethyl)pyrimidin-4(1H)-ones: a novel class of selective human A-FABP inhibitors” (Bioorg Med Chem Lett, 2004).

The target in this assay is Fatty acid-binding protein, heart (Homo sapiens, UniProt P05413).
Fatty acid-binding protein, heart, sequence (P05413 whole entry): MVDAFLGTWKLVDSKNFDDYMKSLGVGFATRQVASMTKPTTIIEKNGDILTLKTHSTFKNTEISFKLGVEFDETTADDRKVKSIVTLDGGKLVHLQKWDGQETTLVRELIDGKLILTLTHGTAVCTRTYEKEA

As for `Oc1cc(C(F)(F)F)nc(NCc2ccc(Cl)cc2)n1`, the IC50 – broadly, the point on the concentration scale where inhibition reaches its midpoint – was over 100 µM.
For the compound `CN(Cc1ccccc1)c1nc(C(F)(F)F)cc(=O)[nH]1`, the IC50 was over 100 µM.
